Laboratory results taken from patent US10770699B2, “Stable bromine charge storage in porous carbon electrodes using tetraalkylammonium bromides for reversible solid complexation” (The Regents of the University of California, priority 2014, dated 2020).

Assay: Solubility of redox-active electrolyte species in aqueous electrolyte

CCCCCCC[n+]1ccc(-c2cc[n+](CCCCCCC)cc2)cc1.[Br-].[Br-] [HV]
solubility (aqueous electrolyte): < 200 mM

CCCCCC[n+]1ccc(-c2cc[n+](CCCCCC)cc2)cc1 [Hexyl viologen]
solubility in the presence of NaBr (aqueous, in the presence of NaBr): < 500 mM
